# Results published in patent US20050074827A1, “Methods for identifying modulators of quorum-sensing signaling in bacteria” (priority 2003, published 2005).
# Assays:
# [1] = cell-based binding assay, Passador et al., J. Bacteriol. 178: 5995-6000 (1996); read-out: half-maximal saturation; cited from earlier work
# [2] = system: LasR-controlled promoter PrsaL (yfp reporter) in MW1.pUM15; experiment: Titration of yfp expression in MW1.pUM15 against autoinducer concentration; type: cell-based, Pseudomonas aeruginosa
# Description: Strain Construction. We tested whether the P. aeruginosa quorum-sensing-controlled promoter for the rsaL gene (PrsaL) can be used in high-throughput screening to identify modulators of quorum-sensing signaling. We constructed a plasmid (designated pUM15) with yfp under control of the P. aeruginosa LasR-controlled promoter PrsaL and introduced the plasmid into P. aeruginosa wild-type strain PAO1 (designated PAO1.pUM15). In PAO1.pUM15, the expression of yfp is dependent on the endogenously synthesized autoinducer, 3-oxo-C12-HSL. Thus, fluorescence will be altered if a test compound modulates any aspect of signaling, including, e.g., signal synthesis, stability, reception, or expression of LasR-dependent genes. Accordingly, we designated this assay the “Complete Signaling Assay” or CSA. […]
# Measurement of Reporter Gene Product. We measured fluorescence with an excitation filter at 485 nm and an emission filter at 535 nm in a Tecan SPECTRAFluor Plus plate reader. […]
# Expression Depends on Autoinducer. […] We detected very little fluorescence in MW1.pUM15 culture grown in the absence of signal molecule (FIG. 1).
# The Assay Mimics Naturally Occurring Quorum-Sensing Signaling. […] We observed that fluorescence in MW1.pUM15 is half-maximal at 200±100 nM 3-oxo-C12-HSL (FIG. 2). […] We also confirmed that expression of yfp is quorum-sensing dependent by graphing fluorescence per cell against cell density (FIG. 3). […]
compound,measurement,setting,value
CCCCCCCCCC(=O)CC(=O)NC1CCOC1=O (stereo not drawn) [3-oxo-C12-HSL],Kd,[1],0.2 µM
same,EC50,"[2]; MW1.pUM15, yfp fluorescence, FIG. 2, read-out: 3-oxo-C12-HSL concentration at which fluorescence in MW1.pUM15 is half-maximal",0.2 ± 0.1 µM
same,effect on yfp expression in MW1.pUM15,"[2]; addition of autoinducer, 0.9 mM per FIG. 1 legend",restored expression of yfp
